This is an account of results in US20210114973A1, “PHARMACEUTICAL FORMULATIONS” (First Wave Bio, Inc., priority 2019, published 2021).

For data set [1] the following is noted: cited from earlier work.
The nature of data set [2]: Effect of particle size on colonic exposure levels: single rectal dose of niclosamide suspension, blood and rectal mucosa samples. The note with it: rabbit; for plasma concentration of niclosamide (maximum measured): rectal administration, 1 hour (time point of maximum plasma concentration).
Experimental: These preparations of niclosamide were formulated into a suspension. Rabbits were treated with a single dose of these niclosamide suspensions at the dose levels specified. Following dosing, blood samples and rectal mucosa samples were obtained at indicated time points.

As to `O=C(Nc1ccc([N+](=O)[O-])cc1Cl)c1cc(Cl)ccc1O` [Niclosamide, 5-chloro-N-(2-chloro-4-nitrophenyl)-2-hydroxybenzamide], the solubility in acetone entry in data set [1] (acetone) is recorded as “soluble”. Besides, the “solubility in ether, ethanol and chloroform” value in data set [1] (ether, ethanol and chloroform) is listed as “sparingly soluble”. In data set [1] (water, 20° C.), the water solubility was 5 to 8 µg/mL.
`O=C(Nc1ccc([N+](=O)[O-])cc1Cl)c1cc(Cl)ccc1O` [milled niclosamide, 5-chloro-N-(2-chloro-4-nitrophenyl)-2-hydroxybenzamide] gave a concentration at 1 hour in data set [2] (colon tissue, other: rectal, 22.5 mg) of 6090 ng/mL. Moreover, the “plasma concentration of niclosamide (maximum measured)” value turned out to be 6.576 in data set [2] (7.5 mg single dose) and 20.24 in data set [2] (22.5 mg single dose).
